The results in this text go back to US20080051463A1, “ANTHRACENE COMPOUNDS AND THEIR USE FOR TREATING BENIGN AND MALIGNANT TUMOR DISORDERS” (AETERNA ZENTARIS GmbH, priority 2006, published 2008).

Values after ≈ are worked out from the molar mass of the structure shown.

As a reminder, the EC50 is the concentration needed to bring the measured effect to its halfway point.

Assay [1] relates to RKOp27 human colon carcinoma cells. As to the kind of experiment: Proliferation test, RKOp27 cell system without p27kiP1 expression. In kind it is cell-based. The note with it: RKOp27 without expression of p27kiP1. An excerpt: (§1) The antiproliferative activity of the compounds 1, 2, 4, 6, 7, 9, 10, 11, 12 and 13 according to the invention was investigated in a proliferation test performed on established tumor cell lines (D. A. Scuderio et al. Cancer Res. 1988, 48: 4827-4833).
(§2) The test used determines the cellular dehydrogenase activity and makes it possible to determine cell viability and determine cell number indirectly.
(§3) The cell lines used are the human cervical carcinoma cell line KB/HeLa (ATCC CCL17), the ovarian adenocarcinoma cell line SKOV-3 (ATCC HTB77), the human glioblastoma cell line SF-268 (NCI-503138) and the lung carcinoma cell line NCI-H460 (NCI-503473). In addition, an RKOp27 cell system was used for investigating the cell cycle-specific effect of the substance (M. Schmidt et al. Oncogene 2000, 19(20): 2423-9).
(§4) RKO is a human colon carcinoma line in which expression of the cell cycle inhibitor p27^kiP1 can be induced using the ecdysone expression system and lead to cell cycle arrest specifically in […].
(§5) By contrast, cell cycle-specific substances, such as, for example, tubulin inhibitors, are only cytotoxic when cells are not arrested and the cell cycle is passed through.

The target in assay [2] is T1, complete recombinant KIF5A (Homo sapiens, UniProt Q12840).
T1 construct: Here, use was made of complete recombinant KIF5A
T1 sequence (Q12840 1-1032): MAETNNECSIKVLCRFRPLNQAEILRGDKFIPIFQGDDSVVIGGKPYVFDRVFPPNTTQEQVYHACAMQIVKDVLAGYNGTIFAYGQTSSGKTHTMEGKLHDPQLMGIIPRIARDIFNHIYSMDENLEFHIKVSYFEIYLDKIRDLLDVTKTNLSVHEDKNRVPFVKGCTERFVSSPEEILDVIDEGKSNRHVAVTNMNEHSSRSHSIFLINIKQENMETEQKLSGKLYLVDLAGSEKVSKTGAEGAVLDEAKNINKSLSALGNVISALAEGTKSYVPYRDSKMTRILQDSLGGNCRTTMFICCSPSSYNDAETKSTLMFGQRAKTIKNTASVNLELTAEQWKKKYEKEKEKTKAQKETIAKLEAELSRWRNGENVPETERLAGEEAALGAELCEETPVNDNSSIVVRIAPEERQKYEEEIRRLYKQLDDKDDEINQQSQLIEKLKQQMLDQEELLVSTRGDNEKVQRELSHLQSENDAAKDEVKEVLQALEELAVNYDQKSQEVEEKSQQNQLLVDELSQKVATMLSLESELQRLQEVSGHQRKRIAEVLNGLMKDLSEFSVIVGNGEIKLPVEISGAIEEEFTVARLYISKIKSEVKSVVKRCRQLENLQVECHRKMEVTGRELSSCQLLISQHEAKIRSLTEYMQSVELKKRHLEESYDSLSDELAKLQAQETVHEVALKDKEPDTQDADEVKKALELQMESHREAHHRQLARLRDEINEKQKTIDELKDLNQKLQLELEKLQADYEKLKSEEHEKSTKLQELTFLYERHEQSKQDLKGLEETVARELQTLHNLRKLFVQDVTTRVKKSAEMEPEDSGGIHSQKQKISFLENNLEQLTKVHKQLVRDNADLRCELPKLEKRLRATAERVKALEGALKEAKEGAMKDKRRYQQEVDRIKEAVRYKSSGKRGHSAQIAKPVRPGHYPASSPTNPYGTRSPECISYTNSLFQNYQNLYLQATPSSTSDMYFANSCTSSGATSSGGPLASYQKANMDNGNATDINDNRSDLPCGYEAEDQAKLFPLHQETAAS
As to the kind of experiment: Inhibition of KIF5A ATPase activity (end-point assay). In kind it is biochemical. To be noted: microtubulus-activatable ATPase. As to the method: In an in vitro test, compound 1 was examined for inhibition of KIF5A ATPase activity. Here, use was made of complete recombinant KIF5A (Niclas J, Navone F, Hom-Booher N, Vale R D Neuron 1994, 12:1059-1072).
The activity of the microtubulus-activatable ATPase was determined by end-point assay. For tubulin isolation and preparation of the microtubuli see citations in Example II) b).
Table 6 states the EC50 value of the ATPase inhibition of KIF5A by compound 1 according to the invention.

In assay [3] the test system is RKOp27 human colon carcinoma cells, p27kiP1 induced. Nature of the assay: Proliferation test, RKOp27 cell system with induced p27kiP1 expression. In kind it is cell-based. To be noted: RKOp27 with induced expression of p27kiP1, read-out: RKOP27ind EC50.
From the text: as §1, §2, §3, §4, §5

Take `O=C(C=C1c2ccccc2C(=O)c2ccccc21)c1ccc(O)c(O)c1` [Compound 1, 10-[2-(3,4-dihydroxy-phenyl)-2-oxo-ethylidene]-10H-anthracen-9-one]: the EC50 in assay [1] is 0.083 µg/mL (≈ 0.242 µM); in assay [2] it was 61.9 µM; in assay [3], greater than 3.16 µg/mL.
